Results from patent US10100064B2, “Purine inhibitors of human phosphatidylinositol 3-kinase delta” (Merck Sharp & Dohme Corp., priority 2014, dated 2018).

Columns and labels:
PI3Kdelta = biological target: T1, PI3Kdelta (Homo sapiens, UniProt O00329); assay: HTRF PI3K biochemical assay, delta isoform; details: 0.3 nM enzyme, 100 uM ATP, 5 uM PIP2, form screened (Neutral or TFA salt) given per compound
T1 construct: purchased Upstate; Millipore 14-604
Source text: (§1) HTRF PI3K Biochemical Assay to Measure Intrinsic Potency of Compound Inhibitors
(§2) The PI3-Kinase biochemical assays were developed to measure the intrinsic potency and compound dependent inhibition of the alpha, beta, delta, and gamma PI3K isoform enzymes. This assay was developed and further optimized from a kit produced by Upstate (Millipore catalog #33-047) and has been configured for HTS and SAR screening. Briefly, this procedure exploits the exquisite specificity and high affinity binding of […] phosphatidyl(3,4,5)triphosphate (PIP3) to the GRP1 pleckstrin homology (PH) domain to generate the signal. In the absence of PIP3, an HTRF (Homogeneous Time-Resolved Fluorescence energy transfer) complex is formed consisting of europium (Eu)-labeled anti-GST, GSTtagged GRP1-PH domain, biotin-PIP3 and streptavidin conjugated APC. The native PIP3 produced by PI3-Kinase activity disrupts in a competitive manner the biotin-PIP3 from the PH domain, resulting in the loss of energy transfer (HTRF complex) and a decrease in the signal. The format of this assay is the same for all 4 isoforms of PI3K; the differences lie in the concentration of enzyme used to achieve robust assay window. The alpha, beta, and delta assays are run at 0.5, 1, and 0.3 nM enzymes and the gamma assay is run at 5 nM enzyme. The ATP concentration is 100 uM in the alpha, beta, and delta assays and 50 uM ATP in the gamma assay. All reactions are run at 5 uM PIP2.
(§3) Compounds are serially diluted (3-fold in 100% DMSO) across a 384-well polypropylene source plated from column 3 to column 12 and column 13 to column 22, to yield 10 concentration dose response for each test compound. Columns 1, 2, 23 and 24 contain either only DMSO or pharmacological known control inhibitor. Once titrations are made, 2.5 nL of the compounds on 384 well plates are reformatted and transferred by acoustic dispense in quadruplicates to a 1536 assay plate (Greiner) to assay across all four PI3K isoform enzymes.
(§4) The PI3-Kinase biochemical assay was optimized using the HTRF kit provided by Upstate (Millipore). The assay kit contains six reagents: 1) 4× Reaction Buffer; 2) native PIP2 (substrate); 3) Stop (EDTA); 4) Detection Mix A (Streptavidin-APC); 5) Detection Mix B (Eu-labeled Anti-GST plus GST-tagged PH-domain); 6) Detection Mix C. In addition, the following items were obtained or purchased; PI3Kinase (alpha 14-602, beta 14-603, gamma 14-558 and delta 14-604 from Upstate; Millipore), dithiothreitol (Sigma, D-5545), Adenosine-5′ triphosphate (InVitrogen, Cat#AS001A), native PIP3 (PI(3,4,5)P3, diC8, H^+, CELLSIGNALS, INC. Cat #907) DMSO (Sigma, 472301).
(§5) PI3Kinase Reaction Buffer is prepared by dilution the stock 1:4 with de-ionized water. DTT, PIP2 and Biotin-PIP3 were added to 1536 assay plate at a final concentration of 5 mM, […] 25 nM on the day of use. Enzyme addition and compound pre-incubation are initiated by the addition of 1.25 ul of PI3K (at twice its final concentration) in the 1× reaction buffer to all wells using a BioRaptor. Plates are incubated at room temperature for 15 minutes. Reactions are initiated by addition of 1.25 ul of 2× substrate solution (PIP2 and ATP in 1× reaction buffer) using BioRaptor. Plates are incubated in humidified chamber at room temperature for one hour. Reactions are quenched by addition of 0.625 uL of stop solution to all wells using the BioRaptor. The quenched reactions are then processed to detect product formation by adding 0.625 uL of Detection Solution to all wells using the BioRaptor (Detection mix C, Detection Mix A, and Detection Mix B combined together in an 18:1:1 ratio prepared 2 hours prior to use). Following a one hour incubation in the dark, the HTRF signal is measured on the Envision plate reader set for 330 nm excitation and dual emission detection at […]. […]

PI3Kalpha = biological target: T2, PI3Kalpha (Homo sapiens, UniProt P42336); assay: HTRF PI3K biochemical assay, alpha isoform (selectivity versus delta); details: relative ratio PI3K-alpha IC50 value / PI3K-delta IC50 value
T2 construct: purchased Upstate; Millipore 14-602
Source text: as §1, §2, §3, §4, §5

T2 sequence (P42336 whole entry, canonical isoform): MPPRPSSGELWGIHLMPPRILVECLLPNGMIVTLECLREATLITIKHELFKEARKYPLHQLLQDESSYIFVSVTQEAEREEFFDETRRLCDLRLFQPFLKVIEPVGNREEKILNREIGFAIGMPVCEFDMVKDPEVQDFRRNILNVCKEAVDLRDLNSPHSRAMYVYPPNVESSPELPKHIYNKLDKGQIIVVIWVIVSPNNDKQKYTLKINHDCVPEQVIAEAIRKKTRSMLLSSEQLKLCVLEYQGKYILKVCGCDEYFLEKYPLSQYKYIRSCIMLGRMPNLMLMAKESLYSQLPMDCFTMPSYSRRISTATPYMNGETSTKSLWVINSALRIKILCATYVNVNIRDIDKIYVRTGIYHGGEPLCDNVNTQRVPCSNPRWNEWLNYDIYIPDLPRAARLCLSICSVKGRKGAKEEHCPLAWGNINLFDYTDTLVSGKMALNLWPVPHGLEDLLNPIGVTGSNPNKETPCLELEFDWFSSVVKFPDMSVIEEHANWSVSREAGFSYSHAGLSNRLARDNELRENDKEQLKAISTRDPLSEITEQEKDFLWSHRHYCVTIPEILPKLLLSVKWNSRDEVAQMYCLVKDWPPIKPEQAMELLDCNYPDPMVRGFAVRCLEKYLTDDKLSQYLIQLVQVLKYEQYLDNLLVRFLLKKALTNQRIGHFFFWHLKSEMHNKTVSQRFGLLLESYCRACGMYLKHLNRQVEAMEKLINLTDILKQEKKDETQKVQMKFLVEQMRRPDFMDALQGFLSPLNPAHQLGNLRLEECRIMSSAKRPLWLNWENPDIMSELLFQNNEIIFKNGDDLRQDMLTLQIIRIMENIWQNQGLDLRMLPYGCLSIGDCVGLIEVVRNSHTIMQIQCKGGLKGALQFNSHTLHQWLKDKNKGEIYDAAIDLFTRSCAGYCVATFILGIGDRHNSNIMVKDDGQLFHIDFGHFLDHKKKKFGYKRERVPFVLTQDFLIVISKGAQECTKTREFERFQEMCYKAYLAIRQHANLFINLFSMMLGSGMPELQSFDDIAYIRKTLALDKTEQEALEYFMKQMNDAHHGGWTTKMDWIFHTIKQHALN
T2 sequence (P27986 whole entry partner, canonical isoform): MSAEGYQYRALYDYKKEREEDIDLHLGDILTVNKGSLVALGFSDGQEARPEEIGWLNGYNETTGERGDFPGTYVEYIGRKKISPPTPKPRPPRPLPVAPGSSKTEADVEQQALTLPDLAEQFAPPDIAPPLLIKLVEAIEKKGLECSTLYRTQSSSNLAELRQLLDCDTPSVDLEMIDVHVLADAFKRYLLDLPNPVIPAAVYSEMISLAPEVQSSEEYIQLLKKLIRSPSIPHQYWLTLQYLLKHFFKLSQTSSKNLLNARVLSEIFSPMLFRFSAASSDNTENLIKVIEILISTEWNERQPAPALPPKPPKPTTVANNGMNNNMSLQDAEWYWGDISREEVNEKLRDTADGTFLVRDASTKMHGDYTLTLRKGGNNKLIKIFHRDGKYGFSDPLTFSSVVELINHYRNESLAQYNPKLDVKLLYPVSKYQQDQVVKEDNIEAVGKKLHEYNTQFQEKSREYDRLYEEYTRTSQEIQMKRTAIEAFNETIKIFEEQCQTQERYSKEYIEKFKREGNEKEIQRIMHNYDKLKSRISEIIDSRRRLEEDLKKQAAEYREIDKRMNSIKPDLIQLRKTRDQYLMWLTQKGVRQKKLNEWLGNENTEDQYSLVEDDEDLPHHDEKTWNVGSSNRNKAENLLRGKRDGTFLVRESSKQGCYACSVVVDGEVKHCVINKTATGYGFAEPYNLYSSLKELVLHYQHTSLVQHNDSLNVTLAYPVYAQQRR
T1 sequence (O00329 whole entry, canonical isoform): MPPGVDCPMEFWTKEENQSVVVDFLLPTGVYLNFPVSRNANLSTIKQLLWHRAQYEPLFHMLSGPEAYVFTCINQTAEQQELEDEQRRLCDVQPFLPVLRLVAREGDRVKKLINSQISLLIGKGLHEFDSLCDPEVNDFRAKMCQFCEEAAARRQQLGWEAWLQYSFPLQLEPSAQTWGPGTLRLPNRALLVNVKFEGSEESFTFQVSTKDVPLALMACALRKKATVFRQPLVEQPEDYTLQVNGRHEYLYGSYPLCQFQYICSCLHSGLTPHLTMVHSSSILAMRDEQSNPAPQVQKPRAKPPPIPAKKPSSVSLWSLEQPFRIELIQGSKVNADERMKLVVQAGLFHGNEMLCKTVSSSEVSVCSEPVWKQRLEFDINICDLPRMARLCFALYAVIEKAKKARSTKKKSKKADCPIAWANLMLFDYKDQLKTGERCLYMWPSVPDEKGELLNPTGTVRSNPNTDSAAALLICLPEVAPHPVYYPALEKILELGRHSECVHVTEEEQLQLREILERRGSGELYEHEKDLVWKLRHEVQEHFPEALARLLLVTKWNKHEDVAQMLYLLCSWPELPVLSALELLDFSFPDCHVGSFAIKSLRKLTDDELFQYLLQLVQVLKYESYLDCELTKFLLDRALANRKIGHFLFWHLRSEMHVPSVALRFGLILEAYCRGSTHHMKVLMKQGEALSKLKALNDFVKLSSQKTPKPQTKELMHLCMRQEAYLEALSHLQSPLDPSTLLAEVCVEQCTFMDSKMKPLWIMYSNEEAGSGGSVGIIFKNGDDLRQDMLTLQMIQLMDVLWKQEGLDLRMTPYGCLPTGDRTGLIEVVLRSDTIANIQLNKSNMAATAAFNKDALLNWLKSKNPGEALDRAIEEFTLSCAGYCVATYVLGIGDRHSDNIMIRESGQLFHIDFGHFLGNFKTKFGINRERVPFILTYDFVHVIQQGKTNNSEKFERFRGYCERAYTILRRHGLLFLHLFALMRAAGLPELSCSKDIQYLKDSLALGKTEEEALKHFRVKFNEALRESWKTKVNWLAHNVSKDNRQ
T1 sequence (P27986 whole entry partner, canonical isoform): as the sequence (P27986 whole entry partner, canonical isoform) above

SMILES | IC50 (PI3Kdelta) [nM] | Selectivity versus PI3Kalpha (PI3Kalpha)
CCn1c(-c2cnc(C)nc2)nc2c(NC3CCc4nnc(C(C)C)n4C3)ncnc21 (single isomer, unassigned) [Compound 1-4, (S or R)-9-ethyl-N-[3-(1-methylethyl)-5,6,7.8-tetrahydro[1,2,4]triazolo[4,3-a]pyridin-6-yl]-8-(2-methylpyrimidin-5-yl)-9H-purin-6-amine] | 46 | >10
CCn1c(-c2cnc(C)nc2)nc2c(NC3CCc4c(c(C(C)C)nn4S(C)(=O)=O)C3)ncnc21 (racemic) [Compound 2-23, (S and R)-9-ethyl-N-[3-(1-methylethyl)-1-(methylsulfonyl)-4,5,6,7-tetrahydro-1H-indazol-5-yl]-8-(2-methylpyrimidin-5-yl)-9H-purin-6-amine] | < 1 | >10
CCn1c(-c2ccc(S(C)(=O)=O)nc2)nc2c(NC3CCc4nnc(C5CC5)n4C3)ncnc21 (single isomer, unassigned) [Compound 1-30, (S or R)-N-[(6S)-3-cyclopropyl-5,6,7,8-tetrahydro[1,2,4]triazolo[4,3-a]pyridin-6-yl]-9-ethyl-8-[6-(methylsulfonyl)pyridin-3-yl]-9H-purin-6-amine] | 8.3 | >10
CCn1c(-c2cnc(C)nc2)nc2c(NC3CCc4c(c(C(C)C)nn4C(=O)OC)C3)ncnc21 (single isomer, unassigned) [Compound 2-19, (S or R)-methyl 5-{[9-ethyl-8-(2-methylpyrimidin-5-yl)-9H-purin-6-yl]amino}-3-(1-methylethyl)-4,5,6,7-tetrahydro-1H-indazole-1-carboxylate] | 1 | >10
CCn1c(-c2ccc(OC(F)(F)F)cc2)nc2c(NC3CCc4nnc(C5CC5)n4C3)ncnc21 (racemic) [Compound 1-16, (S and R)-N-(3-cyclopropyl-5,6,7,8-tetrahydro[1,2,4]triazolo[4,3-a]pyridin-6-yl)-9-ethyl-8-[4-(trifluoromethoxy)phenyl]-9H-purin-6-amine] | 3.9 | >10
CCn1c(-c2cnc(C)nc2)nc2c(NC3CCc4c(c(C(C)C)nn4C(C)=O)C3)ncnc21 (racemic) [Compound 2-12, (S and R)-N-[1-acetyl-3-(1-methylethyl)-4,5,6,7-tetrahydro-1H-indazol-5-yl]-9-ethyl-8-(2-methylpyrimidin-5-yl)-9H-purin-6-amine] | 15 | >10
CCn1c(-c2cnn(-c3ccccc3)c2)nc2c(NC3CCc4nnc(C(C)C)n4C3)ncnc21 (single isomer, unassigned) [Compound 1-23, (S or R)-9-ethyl-N-[3-(1-mtthylethyl)-5,6,7,8-tetrahydro[1,2,4]triazolo[4,3-a]pyridin-6-yl]-8-(1-phenyl-1H-pyrazol-4-yl)-9H-purin-6-amine] | < 1 | >10
CCn1c(-c2ccc(C(F)F)cc2)nc2c(NC3CCc4nnc(C(C)C)n4C3)ncnc21 (single isomer, unassigned) [Compound 1-24, 8-[4-(difluoromethyl)phenyl]-9-ethyl-N-[(6(S or R))-3-(1-methylethyl)-5,6,7,8-tetrahydro[1,2,4]triazolo[4,3-a]pyridin-6-yl]-9H-purin-6-amine] | 3.5 | >10
CCn1c(-c2cnc(C)nc2)nc2c(NC3CCc4c(c(C(C)C)nn4CCO)C3)ncnc21 (single isomer, unassigned) [Compound 2-11, (S or R)-2-[5-{[9-ethyl-8-(2-methylpyrimidin-5-yl)-9H-purin-6-yl]amino}-3-(1-methylethyl)-4,5,6,7-tetrahydro-1H-indazol-1-yl]ethanol] | 2.1 | >10
CCn1c(-c2ccc(C(F)(F)F)cc2)nc2c(NC3CCc4[nH]nc(C(C)C)c4C3)ncnc21 (single isomer, unassigned) [Compound 2-8, (S or R)-9-ethyl-N-[3-(1-methylethyl)-4,5,6,7-tetrahydro-1H-indazol-5-yl]-8-[4-(trifluoromethyl)phenyl]-9H-purin-6-amine] | 210 | >10
CCn1c(-c2cnc(C)nc2)nc2c(NC3CCc4nnc(C5CC5)n4C3)ncnc21 (single isomer, unassigned) [Compound 1-2, (S or R)-N-(3-cyclopropyl-5,6,7,8-tetrahydro[1,2,4]triazolo[4,3-a]pyridin-6-yl)-9-ethyl-8-(2-methylpyrimidin-5-yl)-9H-purin-6-amine] | 65 | >10
CCn1c(-c2cnc(C)nc2)nc2c(NC3CCc4c(c(C(C)C)nn4C(=O)NC(C)(C)C)C3)ncnc21 (racemic) [Compound 2-21, (S and R)-N-tert-butyl-5-{[9-ethyl-8-(2-methylpyrimidin-5-yl)-9H-purin-6-yl]amino}-3-(1-methylethyl)-4,5,6,7-tetrahydro-1H-indazole-1-carboxamide] | 16 | >10

Next, values leading:

IC50 (PI3Kdelta) [nM] | Selectivity versus PI3Kalpha (PI3Kalpha) | SMILES
21 | >10 | CCc1nc2c(n1C1CC1)CC(Nc1ncnc3c1nc(-c1cnc(C)nc1)n3CC)CC2 (single isomer, unassigned) [Compound 5-8, (S or R)-N-(1-cyclopropyl-2-ethyl-4,5,6,7-tetrahydro-1H-benzimidazol-6-yl)-9-ethyl-8-(2-methylpyrimidin-5-yl)-9H-purin-6-amine]
180 | >10 | CCn1c(-c2ccc(C(F)(F)F)cc2)nc2c(NC3CCc4ncn(C5CC5)c4C3)ncnc21 (single isomer, unassigned) [Compound 5-4, (S or R)-N-(1-cyclopropyl-4,5,6,7-tetrahydro-1H-benzimidazol-6-yl)-9-ethyl-8-[4-(trifluoromethyl)phenyl]-9H-purin-6-amine]
260 | >10 | CCn1c(-c2cnc(C)nc2)nc2c(NC3CCc4ncn(C(C)C)c4C3C)ncnc21 (single isomer, unassigned) [Compound 5-22, 9-ethyl-N-[((6S, 7S) or (6R, 7R))-7-methyl-1-(1-methylethyl)-4,5,6,7-tetrahydro-1H-benzimidazol-6-yl]-8-(2-methylpyrimidin-5-yl)-9H-purin-6-amine]
1.7 | >10 | CCn1c(-c2cnc(C)nc2)nc2c(NC3Cc4c(ncn4C(C)C)CC3C)ncnc21 (single isomer, unassigned) [Compound 5-19, 9-ethyl-N-[cis-5-methyl-1-(1-methylethyl)-4,5,6,7-tetrahydro-1H-benzimidazol-6-yl]-8-(2-methylpyrimidin-5-yl)-9H-purin-6-amine]
290 | >10 | CCn1c(-c2cnc(C)nc2)nc2c(NC3CCc4ncc(C5CC5)n4C3)ncnc21 (single isomer, unassigned) [Compound 4-2, (S or R)-N-(3-cyclopropyl-5,6,7,8-tetrahydroimidazo[1,2-a]pyridin-6-yl)-9-ethyl-8-(2-methylpyrimidin-5-yl)-9H-purin-6-amine]
